# PubChem BioAssay AID1259411 (Chemical Carcinogenesis Research Information System (CCRIS), 2018)
# Calls of active or inactive are those of the source. The rule behind the calls is not given here.
# Test system: rodent carcinogenicity bioassays, tumor incidence
# Experiment: CCRIS carcinogenicity studies
# Summary of the method: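 Archive of carcinogenicity, mutagenicity, tumor promotion and tumor inhibition results drawn from journals, NCI reports and other sources, expert-reviewed; covers 1985-2011 and is no longer updated.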
compound,measurement,setting,value
Oc1ccc2ccc3c4ccc5ccccc5c4c4c(c3c2c1O)O4,carcinogen call,"Species: MOUSE, Strain/Sex: ICR/FEMALE, Route: INTRAPERITONEAL, Dose: 0, 25 NMOL (TOTAL DOSE) ADMINISTERED IN DOSES OF 1/7, 2/7, AND 4/7 ON DAYS 1, 7, AND 15 OF LIFE, RESPECTIVELY (STUDY DUR, Tumor Site: Type of Lesion: LUNG: TUMOR",active; positive
same,carcinogen call,"Species: MOUSE, Strain/Sex: ICR/FEMALE, Route: INTRAPERITONEAL, Dose: 0, 25 NMOL TOTAL DOSE INJECTED IN DOSES OF 1/7 ON DAY 1, 2/7 ON DAY 8, AND 4/7 ON DAY 15 OF LIFE (STUDY DURATION: 35 WK), Tumor Site: Type of Lesion: LIVER: TUMOR, LUNG: TUMOR",active; positive
same,carcinogen call,"Species: MOUSE, Strain/Sex: ICR/MALE, Route: INTRAPERITONEAL, Dose: 0, 25 NMOL (TOTAL DOSE) ADMINISTERED IN DOSES OF 1/7, 2/7, AND 4/7 ON DAYS 1, 7, AND 15 OF LIFE, RESPECTIVELY (STUDY DUR, Tumor Site: Type of Lesion: LUNG: TUMOR, LIVER: TUMOR",active; positive
same,carcinogen call,"Species: MOUSE, Strain/Sex: ICR/MALE, Route: INTRAPERITONEAL, Dose: 0, 25 NMOL TOTAL DOSE INJECTED IN DOSES OF 1/7 ON DAY 1, 2.7 ON DAY 8, AND 4/7 ON DAY 15 OF LIFE (STUDY DURATION: 35 WK), Tumor Site: Type of Lesion: LUNG:TUMOR, LIVER: TUMOR",active; positive
same,carcinogen call,"Species: RAT, Strain/Sex: CD-1/FEMALE, Route: INJECTION, Dose: 0, 0.2 UMOL IN 0.1 ML DMSO INJECTED BENEATH EACH OF THE 6 NIPPLES ON THE LEFT SIDE (STUDY DURATION: 41 WK), Tumor Site: Type of Lesion: MAMMARY GLAND: TUMOR",active; positive
same,carcinogen call,"Species: RAT, Strain/Sex: STRAIN-CD/FEMALE, Route: INJECTION, Dose: 0, 0.2 UMOL IN 0.1 ML DMSO INJECTED UNDER EACH OF THE 3 LEFT THORACIC NIPPLES FOLLOWED THE NEXT DAY BY SIMILAR TREATMENT, Tumor Site: Type of Lesion: MAMMARY GLAND: TUMOR",active; positive
O=C1c2ccccc2C(=O)N1SC(Cl)(Cl)Cl,carcinogen call,"Species: MOUSE, Strain/Sex: B6C3F1/FEMALE, Route: ORAL, Dose: 0, 1000, 5000, 10000 PPM IN DIET FOR 104 WK (STUDY DURATION: 104 WK), Dose: 0, 1000, 5000, 10000 PPM IN DIET FOR 104 WK (STUDY DURATION: 104 WK), Tumor Site: Type of Lesion: DUODENUM: CARCINOMA OR ADENOMA",active; positive
same,carcinogen call,"Species: MOUSE, Strain/Sex: B6C3F1/MALE, Route: ORAL, Dose: 0, 1000, 5000, 10000 PPM IN DIET FOR 104 WK (STUDY DURATION: 104 WK), Dose: 0, 1000, 5000, 10000 PPM IN DIET FOR 104 WK (STUDY DURATION: 104 WK), Tumor Site: Type of Lesion: NON-GLANDULAR STOMACH: PAPILLOMA OR SQUAMOUS CELL CARCINOMA, DUODENUM: CARCINOMA OR ADENOMA",active; positive
same,carcinogen call,"Species: Mouse, Strain/Sex: B6C3F1/Female (52/Group), Route: Oral, Dose: 0, 1000, 5000/3500, 10,000/7000 ppm (doses reduced at wk 21) of 88-89% folpet in diet for 2 yr, study duration 2 yr, Dose: 0, 1000, 5000/3500, 10,000/7000 ppm (doses reduced at wk 21) of 88-89% folpet in diet for 2 yr, study duration 2 yr, Tumor Site: Type of Lesion: Stomach: papilloma and squamous cell carcinoma combined (2, 2, 5, 7). Duodenum: adenomas and carcinomas (1, 2, 10, 19).",active; positive
same,carcinogen call,"Species: Mouse, Strain/Sex: B6C3F1/Male (52/Group), Route: Oral, Dose: 0, 1000, 5000/3500, 10,000/7000 ppm (doses reduced at wk 21) of 88-89% folpet in diet for 2 yr, study duration 2 yr, Dose: 0, 1000, 5000/3500, 10,000/7000 ppm (doses reduced at wk 21) of 88-89% folpet in diet for 2 yr, study duration 2 yr, Tumor Site: Type of Lesion: Stomach: papilloma and squamous cell carcinoma combined (0, 2, 6, 3). Duodenum: adenomas and carcinomas (0, 4, 17, 25)",active; positive
same,carcinogen call,"Species: Rat, Strain/Sex: Strain not specified in Department of Pesticides Regulation report /Female (60/Group), Route: Oral, Dose: 0, 200, 800, 3200 ppm of 89.5% folpet in diet for 105 wk, study duration 105 wk, Dose: 0, 200, 800, 3200 ppm of 89.5% folpet in diet for 105 wk, study duration 105 wk",inactive; negative
same,carcinogen call,"Species: Rat, Strain/Sex: Strain not specified in Department of Pesticides Regulation report /Male (60/Group), Route: Oral, Dose: 0, 200, 800, 3200 ppm of 89.5% folpet in diet for 105 wk, study duration 105 wk, Dose: 0, 200, 800, 3200 ppm of 89.5% folpet in diet for 105 wk, study duration 105 wk",inactive; negative. increased incidence of thyroid tumors judged by reviewers as equivocal
CC1CN(N=O)C(=O)O1 (stereo not drawn),carcinogen call,"Species: HAMSTER, Strain/Sex: SYRIAN/FEMALE, Route: GAVAGE, Dose: 0, 14 MG/ML ((0.2 ML OF A SOLUTION IN ETHYL ACETATE/CORN OIL (1:2)) 1/WK FOR 28 WK (STUDY DURATION: LIFE SPAN), Tumor Site: Type of Lesion: FORESTOMACH: SQUAMOUS CELL CARCINOMA OR PAPILLOMA",active; positive
O=C(C1CCCCC1)N1CC(=O)N2CCc3ccccc3C2C1 (stereo not drawn),carcinogen call,"Species: HAMSTER, Strain/Sex: SYRIAN/MALE, Route: GAVAGE, Dose: 0, 300 MG/KG IN CORN OIL 1/5 WK FOR A TOTAL OF 5 DOSES (STUDY DURATION: 40 WK)",inactive; negative
Cc1ccc(S(=O)(=O)NC(=O)NN2CCCCCC2)cc1,carcinogen call,"Species: MOUSE, Strain/Sex: B6C3F1/FEMALE, Route: ORAL, Dose: 0, 5000, 10000 PPM IN DIET, Dose: 0, 5000, 10000 PPM IN DIET",inactive; negative
same,carcinogen call,"Species: MOUSE, Strain/Sex: B6C3F1/MALE, Route: ORAL, Dose: 0, 5000, 10000 PPM IN DIET, Dose: 0, 5000, 10000 PPM IN DIET",inactive; negative
same,carcinogen call,"Species: RAT, Strain/Sex: F344/FEMALE, Route: ORAL, Dose: 0, 5000, 10000 PPM IN DIET, Dose: 0, 5000, 10000 PPM IN DIET",inactive; negative
same,carcinogen call,"Species: RAT, Strain/Sex: F344/MALE, Route: ORAL, Dose: 0, 5000, 10000 PPM IN DIET, Dose: 0, 5000, 10000 PPM IN DIET",inactive; negative
O=C1c2ccccc2CN2C(=O)c3ccccc3CN12,carcinogen call,"Species: MOUSE, Strain/Sex: BALB/FEMALE, Route: ORAL, Dose: 0, 300, 600, 1200 PPM IN DIET FOR 80 WK (STUDY DURATION: 120 WK), Dose: 0, 300, 600, 1200 PPM IN DIET FOR 80 WK (STUDY DURATION: 120 WK), Tumor Site: Type of Lesion: LIVER: HEPATOCELLULAR ADENOMA OR CARCINOMA, ANGIOSARCOMA",active; positive
same,carcinogen call,"Species: MOUSE, Strain/Sex: BALB/MALE, Route: ORAL, Dose: 0, 300, 600, 1200 PPM IN DIET FOR 80 WK (STUDY DURATION: 120 WK), Dose: 0, 300, 600, 1200 PPM IN DIET FOR 80 WK (STUDY DURATION: 120 WK), Tumor Site: Type of Lesion: LIVER: ANGIOMA, ANGIOSARCOMA",active; positive
OCc1c2ccccc2cc2c1ccc1ccccc12,carcinogen call,"Species: RAT, Strain/Sex: SPRAGUE-DAWLEY/FEMALE, Route: SUBCUTANEOUS, Dose: 0, 0.2 UMOL IN SESAME OIL:DMSO (9:1) 3/WK FOR 20 DOSES (STUDY DURATION: 52 WK), Tumor Site: Type of Lesion: INJECTION SITE: SARCOMA",active; positive
CCCCN(N=O)C(CCC)OO (stereo not drawn),carcinogen call,"Species: RAT, Strain/Sex: F344/MALE, Route: SUBCUTANEOUS, Dose: 38 UMOL/KG IN OLIVE OIL 1/WK FOR 10 WK, Tumor Site: Type of Lesion: INJECTION SITE: MALIGNANT FIBROUS HISTIOCYTOMA",active; positive
Nc1ccc(Oc2ccc(N)c(Cl)c2)cc1Cl,carcinogen call,"Species: RAT, Route: SUBCUTANEOUS, Tumor Site: Type of Lesion: EAR (CANAL)",active; positive
